Assay results taken from US20230365590A1, “BIPHENYL COMPOUND AS IMMUNOMODULATOR, PREPARATION METHOD THEREFOR AND APPLICATION THEREOF” (SHENZHEN CHIPSCREEN BIOSCIENCES CO., LTD., priority 2020, published 2023).
pIC50: −log10 of the molar value.

Tests used:
[1] = target: PD-1/PD-L1 binding (recombinant human PD-L1-Fc fusion protein and His-PD-1 protein) (Homo sapiens (Human), UniProt Q9NZQ7); test: In vitro inhibitory activity against PD-1/PD-L1 binding (HTRF); details: read-out: IC50 for inhibiting PD-1/PD-L1 binding in vitro
Sequence of PD-1/PD-L1 binding (recombinant human PD-L1-Fc fusion protein and His-PD-1 protein) (Q9NZQ7 19-239): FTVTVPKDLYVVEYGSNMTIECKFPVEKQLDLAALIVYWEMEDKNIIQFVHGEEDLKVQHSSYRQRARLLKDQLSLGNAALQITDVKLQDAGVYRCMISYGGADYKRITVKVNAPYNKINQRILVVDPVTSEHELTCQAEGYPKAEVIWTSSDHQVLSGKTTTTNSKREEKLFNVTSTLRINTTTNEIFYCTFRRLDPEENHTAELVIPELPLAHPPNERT
Text: Homogeneous time resolved fluorescence method (HTRF): This method uses the recombinant human PD-L1 protein fused with hFc tag and the recombinant human PD-1 protein fused with His tag, which are interacting ligands and receptors. When the anti-hFc antibody containing chelated Eu tag and the anti-His antibody containing XL665 fluorescein tag are used to bind with the above two corresponding tags respectively and are excited by 320 nm laser, energy can be transferred from Eu element to XL665 fluorescein due to ligand receptor binding, and the XL665 fluorescein is excited to emit light with a wavelength of 665 nm. When an inhibitor for inhibiting interaction of PD-L1 and PD-1 is added, the binding of the ligand and the receptor is destroyed, causing a long distance between Eu and XL665. As a result, the energy cannot be transferred, and the XL665 fluorescein will not be excited.
(§1) Experimental Materials and Devices The recombinant human PD-1 protein with His tag (His-PD-1 protein, Cat #: 10377-H08H-50) and the recombinant human PD-L1-Fc fusion protein (PD-L1-Fc fusion protein, Cat #: 10084-H02H-100) were purchased from Sino Biological Inc., anti-hFc-Eu^3+ antibody and anti-His-XL665 antibody were purchased from Cisbio, and other related reagents such as a diluent buffer (diluent buffer 5 (Cat #: 62DL5DDC) and a detection buffer (PPI-European detection buffer, Cat #: 61DB9RDF) were purchased from Cisbio. Fluorescence detector Tecan (Spark 10M) was purchased from Tecan Company in Switzerland.
The experiment process was carried out according to the flow required in the operating manual of the test reagent. The process was as follows: • (1) Experiment preparation: A test compound was diluted to different concentration gradients with the dilution buffer (the highest final concentration in a 20 μL final reaction system was 10 μM). The His-PD-1 protein was diluted to 800 nM (the final concentration in the 20 final reaction system was 100 nM). The PD-L1-Fc fusion protein was diluted to 16 nM (the final concentration was 2 nM). […] All tests were conducted by use of multiple holes. • (4) The fluorescence detector Tecan (Spark 10M) was used to detect the fluorescence signal of each hole. The excitation wavelength was 320 nm, and the emission wavelengths for detection were 620 nm and 665 nm, respectively. The strength of PD-1/PD-L1 binding refers to a fluorescence signal ratio Em665/Em620. • (5) Calculation formula of binding inhibition rate of test compound: Inhibition rate (%)=[1−(fluorescence signal ratio of detected hole−fluorescence signal ratio of 100% inhibition negative control)]/(fluorescence signal ratio of 0% inhibition positive control−fluorescence signal ratio of 100% inhibition negative control)×100%. The 50% inhibition concentration (IC50) was calculated after the PD-1/PD-L1 binding inhibition rates of the test compound with different concentration gradients were calculated respectively.

[2] = target: CD80/PD-L1 binding (recombinant human His-CD80 protein and PD-L1-Fc fusion protein) (Homo sapiens (Human), UniProt Q9NZQ7); test: In vitro inhibitory activity against CD80/PD-L1 binding (HTRF); details: read-out: IC50 for inhibiting CD80/PD-L1 binding in vitro
Sequence of CD80/PD-L1 binding (recombinant human His-CD80 protein and PD-L1-Fc fusion protein) (Q9NZQ7 19-239): as above
Text: In addition to PD-1, PD-L1 can also play an immune inhibition role by binding to CD80. Similarly, in vitro CD80/PD-L1 binding or binding inhibition test can also be conducted by homogeneous time-resolved fluorescence (HTRF). When the anti-hFc-Eu^3+ antibody and the anti-His-XL665 antibody are used to bind to the hFC tag fused to PD-L1 and the His tag fused to CD80 respectively, and after excitation with 320 nm laser, energy can be transferred from Eu element to XL665 fluorescein due to the binding of PD-L1 and CD80 to excite the XL665 fluorescein to emit light. When an inhibitor for inhibiting interaction of PD-L1 and CD80 is added, the binding of PD-L1 and CD80 is destroyed, causing a long distance between Eu and XL665. As a result, the energy cannot be transferred, and the XL665 fluorescein will not be excited.
as §1, with “The” for “Experimental Materials and Devices The”, “CD80” for “PD-1”, “(His-CD80” for “(His-PD-1”, “10698-H08H-100)” for “10377-H08H-50)”, “(Diluent” for “(diluent”
The experiment process was carried out according to the flow required in the operating manual of the test reagent (Invitrogen). The process was as follows: • (1) Experiment preparation: A test compound was diluted to different concentration gradients with the dilution buffer (the highest final concentration in a 20 μL final reaction system was 10 μM). The His-CD80 protein was diluted to 800 nM (the final concentration in the 20 final reaction system was 100 nM). The PD-L1-Fc fusion protein was diluted to 16 nM (the final concentration was 2 nM). The anti-His-XL665 antibody and the anti-hFc-Eu^3+antibody were diluted 20 times and 100 times respectively with the detection buffer according to reagent requirements. • (2) First, 5 μL of the test compound, 2.5 μL of the His-CD80 fusion protein and 2.5 μL of the […] fusion protein solution were well mixed and incubated at room temperature for 15 min; then, 5 μL of the anti-His-XL665 antibody and 5 μL of the anti-hFc-Eu^3+antibody were added to the system and further incubated for 3 h before test. • (3) During the test reaction, control groups were set, including a 0% inhibitory positive control without adding the test compound and a 100% inhibitory negative control without adding the CD80 protein. All tests were conducted by use of multiple holes. • (4) The fluorescence detector Tecan (Spark 10M) was used to detect the fluorescence signal of each hole. The excitation wavelength was 320 nm, and the emission wavelengths for detection were 620 nm and 665 nm, respectively. The strength of CD80/PD-L1 binding refers to a fluorescence signal ratio Em665/Em620. • (5) Calculation formula of binding inhibition rate of test compound: Inhibition rate (%)=[1−(fluorescence signal ratio of detected hole−fluorescence signal ratio of 100% inhibition negative control)]/(fluorescence signal ratio of 0% inhibition positive control — fluorescence signal ratio of 100% inhibition negative control)×100%. The 50% inhibition concentration (IC50) was calculated after the CD80/PD-L1 binding inhibition rates of the test compound with different concentration gradients were calculated respectively.

pIC50 [1]	pIC50 [2]	SMILES
8.95	9.21	Cn1c(C(=O)Nc2cccc(-c3cccc(NC(=O)c4nc5c(n4C)CCN(CCC46CCC(C(=O)O)(CC4)C6)C5)c3Cl)c2F)nc2c1CCN(CCC13CCC(COC(F)F)(CC1)C3)C2 [Compound I-10, 4-(2-(2-((2-chloro-3′-(5-(2-(4-((difluoromethoxy)methyl)bicyclo[2.2.1]heptan-1-yl)ethyl)-1-methyl-4,5,6,7-tetrahydro-1H-imidazo[4,5-c]pyridine-2-carboxamido)-2′-fluoro-[1,1′-biphenyl]-3-yl)carbamoyl)-1-methyl-1,4,6,7-tetrahydro-5H-imidazo[4,5-c]pyridin-5-yl)ethyl)bicyclo[2.2.1]heptane-1-carboxylic acid]
9.54	9.48	Cn1c(C(=O)Nc2cccc(-c3cccc(NC(=O)c4nc5c(n4C)CCN(CCC46CCC(C(=O)O)(CC4)C6)C5)c3Cl)c2Cl)nc2c1CCN(CCC13CCC(COC(F)F)(CC1)C3)C2 [Compound I-7, 4-(2-(2-((2,2′-dichloro-3′-(5-(2-(4-((difluoromethoxy)methyl)bicyclo[2.2.1]heptan-1-yl)ethyl)-1-methyl-4,5,6,7-tetrahydro-1H-imidazo[4,5-c]pyridine-2-carboxamido)-[1,1′-biphenyl]-3-yl)carbamoyl)-1-methyl-1,4,6,7-tetrahydro-5H-imidazo[4,5-c]pyridin-5-yl)ethyl)bicyclo[2.2.1]heptane-1-carboxylic acid]
8.71	8.84	COCC12CCC(CCN3CCc4c(nc(C(=O)Nc5cccc(-c6cccc(NC(=O)c7nc8c(n7C)CCN(CCC79CCC(C(=O)O)(CC7)C9)C8)c6Cl)c5C#N)n4C)C3)(CC1)C2 [Compound I-11, 4-(2-(2-((2-chloro-2′-cyano-3′-(5-(2-(4-(methoxymethyl)bicyclo[2.2.1]heptan-1-yl)ethyl)-1-methyl-4,5,6,7-tetrahydro-1H-imidazo[4,5-c]pyridine-2-carboxamido)-[1,1′-biphenyl]-3-yl)carbamoyl)-1-methyl-1,4,6,7-tetrahydro-5H-imidazo[4,5-c]pyridin-5-yl)ethyl)bicyclo[2.2.1]heptane-1-carboxylic acid]
8.92	9.02	CCOCC12CCC(CCN3CCc4c(nc(C(=O)Nc5cccc(-c6cccc(NC(=O)c7nc8c(n7C)CCN(CCC79CCC(C(=O)O)(CC7)C9)C8)c6C)c5Cl)n4C)C3)(CC1)C2 [Compound I-3, 4-(2-(2-((2′-chloro-3′-(5-(2-(4-(ethoxymethyl)bicyclo[2.2.1]heptan-1-yl)ethyl)-1-methyl-4,5 ,6,7-tetrahydro-1H-imidazo[4,5-c]pyridine-2-carboxamido)-2-methyl-[1,1′-biphenyl]-3-yl)carbamoyl)-1-methyl-1,4,6,7-tetrahydro-5H-imidazo[4,5-c]pyridin-5-yl)ethyl)bicyclo[2.2.1]heptane-1-carboxylic acid]
